ChEMBL document CHEMBL4831556, “Discovery of a Novel Potent and Selective Calcium Release-Activated Calcium Channel Inhibitor: 2,6-Difluoro-N-(2'-methyl-3'-(4-methyl-5-oxo-4,5-dihydro-1,3,4-oxadiazol-2-yl)-[1,1'-biphenyl]-4-yl)benzamide. Structure-Activity Relationship and Preclinical Characterization” (J Med Chem, 2021)
Values joined by “and” are separate entries in the source; they are usually repeats but may differ in a detail not shown here. Equal entries are not always repeated.

What was measured:
[1] = Tmax in CFA-induced rheumatoid arthritis Lewis rat model at 3 mg/kg, po administered once daily for 15 days; assay type: ADME, organism-based; conditions: in vivo, time 15 day
[2] = molecular target: T1, Cytochrome P450 2B6 (Homo sapiens, UniProt P20813); test: Inhibition of CYP2B6 in human liver microsomes at 10 uM by LC-MS/MS analysis; assay type: ADME
T1 sequence (P20813 whole entry): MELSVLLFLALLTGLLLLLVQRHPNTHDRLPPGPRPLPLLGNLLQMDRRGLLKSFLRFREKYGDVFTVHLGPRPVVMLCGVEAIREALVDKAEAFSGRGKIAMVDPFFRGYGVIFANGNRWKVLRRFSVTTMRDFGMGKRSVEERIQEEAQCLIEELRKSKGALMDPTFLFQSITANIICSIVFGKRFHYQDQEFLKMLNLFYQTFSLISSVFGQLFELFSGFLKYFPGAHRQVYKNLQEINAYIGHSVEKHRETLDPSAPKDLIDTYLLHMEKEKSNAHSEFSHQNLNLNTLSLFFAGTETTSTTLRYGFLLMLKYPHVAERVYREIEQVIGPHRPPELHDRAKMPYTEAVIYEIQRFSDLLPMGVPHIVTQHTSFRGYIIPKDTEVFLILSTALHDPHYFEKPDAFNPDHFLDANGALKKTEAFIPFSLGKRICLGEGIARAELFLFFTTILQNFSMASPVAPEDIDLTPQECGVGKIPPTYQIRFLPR

[3] = Toxicity in mouse assessed as maximum tolerated dose; conditions: in vivo
[4] = Cmax in BALB/c mouse model of mBSA-induced delayed type hypersensitivity at 1 mg/kg, po administered twice daily for 7 days followed by mBSA challenge and measured after 24 hrs; assay type: ADME, organism-based; set-up: route oral, time 8 day, dose 1 mg/kg; conditions: in vivo
[5] = Tmax in BALB/c mouse model of mBSA-induced delayed type hypersensitivity at 3 mg/kg, po administered twice daily for 7 days followed by mBSA challenge and measured after 24 hrs; assay type: ADME, organism-based; conditions: in vivo, time 8 day
[6] = Tmax in BALB/c mouse model of mBSA-induced delayed type hypersensitivity at 1 mg/kg, po administered twice daily for 7 days followed by mBSA challenge and measured after 24 hrs; assay type: ADME, organism-based; conditions: in vivo, time 8 day
[7] = Cmax in rat at 60 mg/kg/day after 2 weeks; assay type: ADME, organism-based; set-up: time 2 weeks, dose 60 mg/kg/day; conditions: in vivo
[8] = AUClast in CFA-induced rheumatoid arthritis Lewis rat model at 0.3 mg/kg, po administered once daily for 15 days; assay type: ADME, organism-based; set-up: route oral, time 15 day, dose 0.3 mg/kg; conditions: in vivo
[9] = Metabolic stability in dog liver microsomes preincubated for 5 mins followed by NADPH addition and measured upto 30 mins by LC-MS/MS analysis; assay type: ADME, Canis lupus familiaris, Microsome; conditions: 0.5 h, time <=35 min
[10] = Tmax in BALB/c mouse model of mBSA-induced delayed type hypersensitivity at 10 mg/kg, po administered twice daily for 7 days followed by mBSA challenge and measured after 24 hrs; assay type: ADME, organism-based; conditions: in vivo, time 8 day
[11] = Half life in Lewis rat at 1 mg/kg, iv measured upto 24 hrs by LC-MS/MS analysis; assay type: ADME, organism-based; conditions: in vivo
[12] = AUClast in CFA-induced rheumatoid arthritis Lewis rat model at 1 mg/kg, po administered once daily for 15 days; assay type: ADME, organism-based; set-up: route oral, dose 1 mg/kg, time 15 day; conditions: in vivo
[13] = molecular target: Voltage-gated inwardly rectifying potassium channel KCNH2 (Homo sapiens, UniProt Q12809); test: Inhibition of human ERG by FLIPR TETRA method
Chain of Voltage-gated inwardly rectifying potassium channel KCNH2 (Q12809 whole entry): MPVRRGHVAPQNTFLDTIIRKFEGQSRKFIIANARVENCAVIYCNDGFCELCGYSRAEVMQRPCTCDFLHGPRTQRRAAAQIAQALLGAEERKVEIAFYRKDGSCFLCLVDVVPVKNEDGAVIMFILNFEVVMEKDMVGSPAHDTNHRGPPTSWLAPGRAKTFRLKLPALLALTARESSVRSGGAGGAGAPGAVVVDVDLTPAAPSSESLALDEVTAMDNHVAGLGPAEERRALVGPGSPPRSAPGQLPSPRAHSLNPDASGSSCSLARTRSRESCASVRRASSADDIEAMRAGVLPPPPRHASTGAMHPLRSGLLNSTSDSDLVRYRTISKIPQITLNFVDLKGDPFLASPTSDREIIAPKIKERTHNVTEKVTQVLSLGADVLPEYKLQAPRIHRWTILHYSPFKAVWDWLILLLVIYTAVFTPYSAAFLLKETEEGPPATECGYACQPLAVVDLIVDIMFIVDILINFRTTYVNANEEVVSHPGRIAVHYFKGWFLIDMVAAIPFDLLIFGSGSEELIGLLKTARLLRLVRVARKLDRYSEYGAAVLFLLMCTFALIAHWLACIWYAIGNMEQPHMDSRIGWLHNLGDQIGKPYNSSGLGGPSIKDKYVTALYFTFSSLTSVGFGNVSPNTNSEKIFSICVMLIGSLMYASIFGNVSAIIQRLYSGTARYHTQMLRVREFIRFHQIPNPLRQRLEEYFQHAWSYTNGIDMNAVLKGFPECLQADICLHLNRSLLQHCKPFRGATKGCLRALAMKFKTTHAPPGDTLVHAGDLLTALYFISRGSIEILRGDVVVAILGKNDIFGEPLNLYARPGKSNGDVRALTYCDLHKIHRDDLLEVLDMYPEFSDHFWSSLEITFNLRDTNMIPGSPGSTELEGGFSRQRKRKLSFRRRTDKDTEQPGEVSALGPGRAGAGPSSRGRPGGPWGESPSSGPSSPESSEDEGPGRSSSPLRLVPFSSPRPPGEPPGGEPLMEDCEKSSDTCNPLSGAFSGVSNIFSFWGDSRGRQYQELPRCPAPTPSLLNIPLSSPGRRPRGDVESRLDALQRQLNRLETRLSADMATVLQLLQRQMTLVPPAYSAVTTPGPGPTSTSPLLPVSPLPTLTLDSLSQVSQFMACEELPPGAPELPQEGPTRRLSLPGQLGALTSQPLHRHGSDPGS

[14] = Trough concentration in human whole blood at 160 mg, qd; assay type: ADME, tissue-based; conditions: read-out: Cmin
[15] = Tmax in Lewis rat at 1 mg/kg, iv measured upto 24 hrs by LC-MS/MS analysis; assay type: ADME, organism-based; conditions: in vivo
[16] = Metabolic stability in rat liver microsomes preincubated for 5 mins followed by NADPH addition and measured upto 30 mins by LC-MS/MS analysis; assay type: ADME, Microsome; conditions: 0.5 h, time <=35 min
[17] = AUClast in BALB/c mouse model of mBSA-induced delayed type hypersensitivity at 1 mg/kg, po administered twice daily for 7 days followed by mBSA challenge and measured after 24 hrs; assay type: ADME, organism-based; set-up: route oral, dose 1 mg/kg, time 8 day; conditions: in vivo
[18] = Cmax in CFA-induced rheumatoid arthritis Lewis rat model at 3 mg/kg, po administered once daily for 15 days; assay type: ADME, organism-based; set-up: route oral, time 15 day, dose 3 mg/kg; conditions: in vivo
[19] = Cmax in rat at 60 mg/kg/day after 13 weeks; assay type: ADME, organism-based; set-up: time 13 weeks, dose 60 mg/kg/day; conditions: in vivo
[20] = Cmax in CFA-induced rheumatoid arthritis Lewis rat model at 0.3 mg/kg, po administered once daily for 15 days; assay type: ADME, organism-based; set-up: route oral, dose 0.3 mg/kg, time 15 day; conditions: in vivo
[21] = Trough concentration in human whole blood at 80 mg, bid; assay type: ADME, tissue-based; conditions: read-out: Cmin
[22] = Oral bioavailability in Lewis rat at 10 mg/kg measured upto 24 hrs by LC-MS/MS analysis; assay type: ADME, organism-based; conditions: in vivo
[23] = AUClast in collagen-induced rheumatoid arthritis DBA/1J mouse model at 3 mg/kg, po administered twice daily for 15 days in presence of 0.75 mg/kg of methotrexate; assay type: ADME, organism-based; set-up: route oral, dose 3 mg/kg, time 15 day; conditions: in vivo
[24] = Cmax in collagen-induced rheumatoid arthritis DBA/1J mouse model at 3 mg/kg, po administered twice daily for 15 days; assay type: ADME, organism-based; set-up: route oral, time 15 day, dose 3 mg/kg; conditions: in vivo
[25] = Cmax in human whole blood at 160 mg, qd; assay type: ADME, tissue-based; set-up: dose 160 mg
[26] = Tmax in collagen-induced rheumatoid arthritis DBA/1J mouse model at 3 mg/kg, po administered twice daily for 15 days; assay type: ADME, organism-based; conditions: in vivo, time 15 day
[27] = AUClast in collagen-induced rheumatoid arthritis DBA/1J mouse model at 3 mg/kg, po administered twice daily for 15 days; assay type: ADME, organism-based; set-up: route oral, dose 3 mg/kg, time 15 day; conditions: in vivo
[28] = Toxicity in human assessed as minimum effective dose
[29] = molecular target: Tumor necrosis factor (Homo sapiens, UniProt P01375); test: Inhibition of TNF-alpha in thapsigargin stimulated human whole blood; assay type: tissue-based
Chain of Tumor necrosis factor (P01375 whole entry): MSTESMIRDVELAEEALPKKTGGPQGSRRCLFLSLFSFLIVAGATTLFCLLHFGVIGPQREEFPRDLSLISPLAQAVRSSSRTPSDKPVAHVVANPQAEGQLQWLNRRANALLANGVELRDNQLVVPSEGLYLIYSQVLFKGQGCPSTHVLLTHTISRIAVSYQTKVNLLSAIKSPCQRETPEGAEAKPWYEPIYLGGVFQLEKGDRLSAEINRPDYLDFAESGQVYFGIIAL

[30] = AUC(0 to t) in rat at 60 mg/kg/day after 2 weeks; assay type: ADME, organism-based; set-up: dose 60 mg/kg/day, time 2 weeks; conditions: in vivo
[31] = Tmax in CFA-induced rheumatoid arthritis Lewis rat model at 0.3 mg/kg, po administered once daily for 15 days; assay type: ADME, organism-based; conditions: in vivo, time 15 day
[32] = Cmax in collagen-induced rheumatoid arthritis DBA/1J mouse model at 3 mg/kg, po administered twice daily for 15 days in presence of 0.75 mg/kg of methotrexate; assay type: ADME, organism-based; set-up: route oral, dose 3 mg/kg, time 15 day; conditions: in vivo
[33] = AUC(0 to t) in human at […] measured on day 14; assay type: ADME, organism-based; set-up: time 14 day; conditions: in vivo
[34] = molecular target: ORAI1/STIM1 (Homo sapiens, UniProt Q13586+Q96D31); test: Inhibition of Orai1/STIM1 (unknown origin) expressed in HEK293 cells assessed as reduction in Ca2+-release activated Ca2+ entry current by manual patch clamp based electrophysiological method; assay type: cell-based
Chain of ORAI1/STIM1 (Q96D31 whole entry): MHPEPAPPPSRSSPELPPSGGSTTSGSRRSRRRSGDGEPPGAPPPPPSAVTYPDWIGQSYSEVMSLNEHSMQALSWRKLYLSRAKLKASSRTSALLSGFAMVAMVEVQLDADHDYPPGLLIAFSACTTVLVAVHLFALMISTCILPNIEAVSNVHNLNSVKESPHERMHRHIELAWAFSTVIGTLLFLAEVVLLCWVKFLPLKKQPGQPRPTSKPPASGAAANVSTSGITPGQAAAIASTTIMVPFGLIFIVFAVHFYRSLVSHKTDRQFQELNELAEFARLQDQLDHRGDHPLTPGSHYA
Chain of ORAI1/STIM1 (Q13586 whole entry): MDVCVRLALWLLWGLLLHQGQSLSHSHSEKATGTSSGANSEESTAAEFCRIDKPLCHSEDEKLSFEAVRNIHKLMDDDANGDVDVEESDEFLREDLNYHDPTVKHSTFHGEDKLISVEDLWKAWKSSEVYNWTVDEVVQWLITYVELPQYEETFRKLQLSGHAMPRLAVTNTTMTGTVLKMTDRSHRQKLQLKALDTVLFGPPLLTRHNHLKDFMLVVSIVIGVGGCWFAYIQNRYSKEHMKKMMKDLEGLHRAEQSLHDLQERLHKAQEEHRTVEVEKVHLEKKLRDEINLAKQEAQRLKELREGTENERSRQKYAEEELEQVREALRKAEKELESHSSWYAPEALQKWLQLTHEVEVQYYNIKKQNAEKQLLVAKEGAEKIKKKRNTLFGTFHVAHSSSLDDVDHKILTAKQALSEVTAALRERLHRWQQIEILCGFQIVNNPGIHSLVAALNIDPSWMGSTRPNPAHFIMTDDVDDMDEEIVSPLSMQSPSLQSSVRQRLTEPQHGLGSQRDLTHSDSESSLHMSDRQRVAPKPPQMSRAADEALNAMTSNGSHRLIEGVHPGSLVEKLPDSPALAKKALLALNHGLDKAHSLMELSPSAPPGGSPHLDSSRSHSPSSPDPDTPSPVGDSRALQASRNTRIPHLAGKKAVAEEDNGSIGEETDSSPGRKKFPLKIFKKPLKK

[35] = Cmax in human at […] measured on day 14; assay type: ADME, organism-based; set-up: time 14 day; conditions: in vivo
[36] = Tmax in CFA-induced rheumatoid arthritis Lewis rat model at 1 mg/kg, po administered once daily for 15 days; assay type: ADME, organism-based; conditions: in vivo, time 15 day
[37] = AUClast in BALB/c mouse model of mBSA-induced delayed type hypersensitivity at 10 mg/kg, po administered twice daily for 7 days followed by mBSA challenge and measured after 24 hrs; assay type: ADME, organism-based; set-up: route oral, time 8 day, dose 10 mg/kg; conditions: in vivo
[38] = Tmax in collagen-induced rheumatoid arthritis DBA/1J mouse model at 3 mg/kg, po administered twice daily for 15 days in presence of 0.75 mg/kg of methotrexate; assay type: ADME, organism-based; conditions: in vivo, time 15 day
[39] = Cmax in BALB/c mouse model of mBSA-induced delayed type hypersensitivity at 3 mg/kg, po administered twice daily for 7 days followed by mBSA challenge and measured after 24 hrs; assay type: ADME, organism-based; set-up: route oral, time 8 day, dose 3 mg/kg; conditions: in vivo
[40] = Toxicity in rat assessed as minimum effective dose; conditions: in vivo
[41] = Cmax in rat at 1 mg/kg/day; assay type: ADME, organism-based; set-up: dose 1 mg/kg/day; conditions: in vivo

With Cc1c(-c2ccc(NC(=O)c3c(F)cccc3F)cc2)cccc1-c1nn(C)c(=O)o1 the Tmax [1] was 4 h, the “inhibition (INH)” value [2] was “Not Active” and the MTD [3] was 2000 mg/kg. It also gave a Cmax [4] of 600 nM, a Tmax [5] of 2 h and a Tmax [6] of 2 h. The Cmax [7] was 5440 ng/mL, the AUC(0-t) at 360 h [8] was 10 µM·h and the Stability [9] was “Stable”. The Tmax [10] was 2 h, the half-life [11] was > 15 h and the AUC(0-t) at 360 h [12] was 36 µM·h. The IC50 [13] was > 10 µM, the concentration [14] was 403 nM and the Tmax [15] was 4.8 min. The Stability [16] was “Stable”, the AUC(0-t) at 192 h [17] was 3.1 µM·h and the Cmax [18] was 4500 nM. For the same molecule, the Cmax [19] was 4680 ng/mL, the Cmax [20] was 600 nM and the concentration [21] was 667 nM. The bioavailability [22] was 100%, the AUC(0-t) at 360 h [23] was 13 µM·h and the Cmax [24] was 1900 nM. For the same molecule, the Cmax [25] was 1760 nM, the Tmax [26] was 1 h and the AUC(0-t) at 360 h [27] was 12 µM·h. For the same molecule, the MED [28] was 80 mg/kg, the IC50 [29] was 0.694 µM and the AUC(0-t) at 336 h [30] was 76700 ng·h/mL. For the same molecule, the Tmax [31] was 2 h, the Cmax [32] was 1600 nM and the AUC(0-t) at 336 h [33] was 7050 ng·h/mL. The IC50 [34] was 0.076 µM, the Cmax [35] was 530 ng/mL and the Tmax [36] was 2 h. The AUC(0-t) at 192 h [37] was 17 µM·h, the Tmax [38] was 2 h and the Cmax [39] was 1600 nM. The MED [40] was 1 mg/kg and the Cmax [41] was 2 µM and 843 ng/mL.

With Cc1c(-c2ccc(NC(=O)c3c(F)cccc3Cl)cc2)cccc1-c1nn(C)c(=O)o1 the “inhibition (INH)” value [2] was “Not Active”, the Stability [9] was “Stable” and the half-life [11] was 13 h. For the same molecule, the Tmax [15] was 4.8 min, the Stability [16] was “Stable” and the bioavailability [22] was 60%.
